Laboratory results published in patent US20250120397A1, “PEST CONTROL METHOD” (National Chung Hsing University, priority 2023, published 2025).

What was measured:
Type in all cases: in vivo
[1] = tested on: Anoplolepis longipes (long-legged ant); experiment: 24-hour fumigation in sealed 1-L container, fatality rate
Source text: (§1) Sitophilus oryzae (rice weevil), Tetranychus urticae (two-spotted spider mite), Lasioderma serricorne (cigarette beetle), Blattella germanica (German cockroach), Anoplolepis longipes (long-legged ant), and Solenopsis invicta (red imported fire ant) were used as the test objects of this experiment and were each put into several 1-L containers. A carrier containing an isododecane (or 2,2,4,6,6-pentamethylheptane to be exact) at each of a plurality of predetermined concentrations (i.e., 2.5, 5, 10, 20, 30, and 40 mg) was then put into one of the 1-L containers of each test object, before the containers were sealed to start a 24-hour fumigation process. After that, the containers were aerated, and the numbers of deaths of each kind of pests were counted.
(§2) Sitophilus oryzae, Tetranychus urticae, Lasioderma serricorne, Blattella germanica, Anoplolepis longipes, and Solenopsis invicta were each put into several 1-L containers. A carrier containing each of n-dodecane, n-decane, 2-methylnonane (an isodecane), and 2,2,4,6,6-pentamethylheptane (an isododecane) at a concentration of 30 mg was then put into one of the 1-L containers of each test object, before the containers were sealed to start a 24-hour fumigation process. After that, the containers were aerated, and the numbers of deaths of each kind of pests were counted.

[2] = tested on: Blattella germanica (German cockroach); experiment: as above
Source text: as §1, §2

[3] = tested on: Lasioderma serricorne (cigarette beetle); experiment: as above
Source text: as §1, §2

[4] = tested on: Sitophilus oryzae (rice weevil); experiment: as above
Source text: as §1, §2

[5] = tested on: Solenopsis invicta (red imported fire ant); experiment: as above
Source text: as §1, §2

[6] = tested on: Tetranychus urticae (two-spotted spider mite); experiment: as above
Source text: as §1, §2

mosquito larvae = experiment: Mosquito larvae killing in 100 mL deionized water, 24 hours, fatality rate; details: uncovered
Method: Artificially raised non-pathogenic mosquito larvae were divided into a plurality of groups each including 30 larvae. Each group of larvae was put into a 1-L container together with 100 mL of deionized water. Then, a reagent containing a spreading agent for agricultural use as well as an isododecane and an isohexadecane in a ratio of 4:1 was added into the deionized water in each container at one of a plurality of predetermined doses and thoroughly mixed. The containers were left uncovered. After 24 hours, the numbers of deaths of the mosquito larvae were counted.

[7] = Table 2: compound at 30 mg in 1-L container

Q: With `CC(CC(C)(C)C)CC(C)(C)C` [2,2,4,6,6-pentamethylheptane] as the molecule, how does the “Fatality rate (%) Anoplolepis longipes” value [1, 7] read?
A: Its value is 100%.

Q: What about the “Fatality rate (%) Anoplolepis longipes” value ([1]; dose 2.5 mg in 1-L container) of the same molecule?
A: Its value is 8%.

Q: And the “Fatality rate (%) Anoplolepis longipes” value ([1]; dose 5 mg in 1-L container)?
A: The value was 14%.

Q: What about the “Fatality rate (%) Anoplolepis longipes” value ([1]; dose 10 mg in 1-L container) of the same molecule?
A: Its value is 32%.

Q: What about the “Fatality rate (%) Anoplolepis longipes” value ([1]; dose 20 mg in 1-L container) of the same molecule?
A: Its value is 80%.

Q: What about the “Fatality rate (%) Anoplolepis longipes” value ([1]; dose 30 mg in 1-L container) of the same molecule?
A: The value was 100%.

Q: And the “Fatality rate (%) Anoplolepis longipes” value ([1]; dose 40 mg in 1-L container)?
A: The value was 100%.

Q: What about the “Fatality rate (%) Blattella germanica” value [2, 7] of the same molecule?
A: The value was 100%.

Q: And the “Fatality rate (%) Blattella germanica” value ([2]; dose 2.5 mg in 1-L container)?
A: Its value is 7%.

Q: What about the “Fatality rate (%) Blattella germanica” value ([2]; dose 5 mg in 1-L container) of the same molecule?
A: Its value is 18%.

Q: And the “Fatality rate (%) Blattella germanica” value ([2]; dose 10 mg in 1-L container)?
A: The value was 38%.

Q: And the “Fatality rate (%) Blattella germanica” value ([2]; dose 20 mg in 1-L container)?
A: Its value is 88.89%.

Q: And the “Fatality rate (%) Blattella germanica” value ([2]; dose 30 mg in 1-L container)?
A: The value was 100%.

Q: What about the “Fatality rate (%) Blattella germanica” value ([2]; dose 40 mg in 1-L container) of the same molecule?
A: Its value is 100%.

Q: And the “Fatality rate (%) Lasioderma serricorne” value [3, 7]?
A: The value was 100%.

Q: And the “Fatality rate (%) Lasioderma serricorne” value ([3]; dose 2.5 mg in 1-L container)?
A: The value was 5%.

Q: What about the “Fatality rate (%) Lasioderma serricorne” value ([3]; dose 5 mg in 1-L container) of the same molecule?
A: Its value is 18%.

Q: And the “Fatality rate (%) Lasioderma serricorne” value ([3]; dose 10 mg in 1-L container)?
A: The value was 25%.

Q: What about the “Fatality rate (%) Lasioderma serricorne” value ([3]; dose 20 mg in 1-L container) of the same molecule?
A: The value was 42.11%.

Q: What about the “Fatality rate (%) Lasioderma serricorne” value ([3]; dose 30 mg in 1-L container) of the same molecule?
A: The value was 100%.

Q: And the “Fatality rate (%) Lasioderma serricorne” value ([3]; dose 40 mg in 1-L container)?
A: The value was 100%.

Q: And the “Fatality rate (%) Sitophilus oryzae” value [4, 7]?
A: The value was 100%.

Q: What about the “Fatality rate (%) Sitophilus oryzae” value ([4]; dose 2.5 mg in 1-L container) of the same molecule?
A: Its value is 0%.

Q: And the “Fatality rate (%) Sitophilus oryzae” value ([4]; dose 5 mg in 1-L container)?
A: Its value is 7%.

Q: What about the “Fatality rate (%) Sitophilus oryzae” value ([4]; dose 10 mg in 1-L container) of the same molecule?
A: Its value is 22%.

Q: And the “Fatality rate (%) Sitophilus oryzae” value ([4]; dose 20 mg in 1-L container)?
A: Its value is 30%.

Q: What about the “Fatality rate (%) Sitophilus oryzae” value ([4]; dose 30 mg in 1-L container) of the same molecule?
A: The value was 100%.

Q: What about the “Fatality rate (%) Sitophilus oryzae” value ([4]; dose 40 mg in 1-L container) of the same molecule?
A: Its value is 100%.

Q: And the “Fatality rate (%) Solenopsis invicta” value [5, 7]?
A: Its value is 100%.

Q: And the “Fatality rate (%) Solenopsis invicta” value ([5]; dose 2.5 mg in 1-L container)?
A: The value was 32%.

Q: What about the “Fatality rate (%) Solenopsis invicta” value ([5]; dose 5 mg in 1-L container) of the same molecule?
A: Its value is 55%.

Q: What about the “Fatality rate (%) Solenopsis invicta” value ([5]; dose 10 mg in 1-L container) of the same molecule?
A: The value was 100%.

Q: And the “Fatality rate (%) Solenopsis invicta” value ([5]; dose 20 mg in 1-L container)?
A: Its value is 100%.

Q: And the “Fatality rate (%) Solenopsis invicta” value ([5]; dose 30 mg in 1-L container)?
A: The value was 100%.

Q: And the “Fatality rate (%) Solenopsis invicta” value ([5]; dose 40 mg in 1-L container)?
A: Its value is 100%.

Q: And the “Fatality rate (%) Tetranychus urticae” value [6, 7]?
A: The value was 100%.

Q: And the “Fatality rate (%) Tetranychus urticae” value ([6]; dose 2.5 mg in 1-L container)?
A: Its value is 45%.

Q: What about the “Fatality rate (%) Tetranychus urticae” value ([6]; dose 5 mg in 1-L container) of the same molecule?
A: Its value is 72%.

Q: What about the “Fatality rate (%) Tetranychus urticae” value ([6]; dose 10 mg in 1-L container) of the same molecule?
A: The value was 100%.

Q: What about the “Fatality rate (%) Tetranychus urticae” value ([6]; dose 20 mg in 1-L container) of the same molecule?
A: Its value is 100%.

Q: What about the “Fatality rate (%) Tetranychus urticae” value ([6]; dose 30 mg in 1-L container) of the same molecule?
A: The value was 100%.

Q: And the “Fatality rate (%) Tetranychus urticae” value ([6]; dose 40 mg in 1-L container)?
A: The value was 100%.

Q: And the “Fatality rate (%) of mosquito larvae” value (mosquito larvae; dose 2.5 mg in 100 mL deionized water)?
A: Its value is 33%.

Q: And the “Fatality rate (%) of mosquito larvae” value (mosquito larvae; dose 5 mg in 100 mL deionized water)?
A: Its value is 50%.

Q: And the “Fatality rate (%) of mosquito larvae” value (mosquito larvae; dose 10 mg in 100 mL deionized water)?
A: Its value is 80%.

Q: And the “Fatality rate (%) of mosquito larvae” value (mosquito larvae; dose 20 mg in 100 mL deionized water)?
A: Its value is 100%.

Q: What about the “Fatality rate (%) of mosquito larvae” value (mosquito larvae; dose 40 mg in 100 mL deionized water) of the same molecule?
A: The value was 100%.

Q: Which results are given for `CCCCCCCC(C)C` [2-methylnonane]?
A: Fatality rate (%) Anoplolepis longipes [1, 7]: 90%; Fatality rate (%) Blattella germanica [2, 7]: 100%; Fatality rate (%) Lasioderma serricorne [3, 7]: 100%; Fatality rate (%) Sitophilus oryzae [4, 7]: 100%; Fatality rate (%) Solenopsis invicta [5, 7]: 100%; Fatality rate (%) Tetranychus urticae [6, 7]: 100%

Q: `CCCCCCCCCC` [n-decane] was tested. Which “Fatality rate (%) Anoplolepis longipes” value [1, 7] did it give?
A: Its value is 75%.

Q: What about the “Fatality rate (%) Blattella germanica” value [2, 7] of the same molecule?
A: Its value is 100%.

Q: And the “Fatality rate (%) Lasioderma serricorne” value [3, 7]?
A: Its value is 100%.

Q: What about the “Fatality rate (%) Sitophilus oryzae” value [4, 7] of the same molecule?
A: The value was 100%.

Q: And the “Fatality rate (%) Solenopsis invicta” value [5, 7]?
A: The value was 100%.

Q: And the “Fatality rate (%) Tetranychus urticae” value [6, 7]?
A: The value was 100%.

Q: How did the “Fatality rate (%) Anoplolepis longipes” value [1, 7] turn out when `CCCCCCCCCCCC` [n-dodecane] was run?
A: Its value is 25%.

Q: And the “Fatality rate (%) Blattella germanica” value [2, 7]?
A: The value was 22.22%.

Q: What about the “Fatality rate (%) Lasioderma serricorne” value [3, 7] of the same molecule?
A: Its value is 100%.

Q: What about the “Fatality rate (%) Sitophilus oryzae” value [4, 7] of the same molecule?
A: The value was 50%.

Q: What about the “Fatality rate (%) Solenopsis invicta” value [5, 7] of the same molecule?
A: The value was 5%.

Q: And the “Fatality rate (%) Tetranychus urticae” value [6, 7]?
A: The value was 95%.
